From patent publication US7705050B2, “Amides, useful in the inhibition of IL-8-induced chemotaxis of neutrophils” (priority 2000, dated 2010)

Key:
[1] = test system: human PMNs stimulated by IL-8; assay: Chemotaxis of human PMNs stimulated by IL-8 (48-well microchamber); type: cell-based; settings: for % inhibition of leucocyte chemotaxis: Table 3, diastereoisomers of ibuprophenoyl-alanine; for activity on chemotaxis induced by IL-8, in words: Tables 1 and 2
Procedure: For in vitro evaluation of the compounds of the invention, polymorphonucleated leucocytes were used (hereinafter referred to as PMNs) isolated from heparinized human blood, taken from consenting healthy adults, by means of sedimentation on dextrane; the mononucleated cells were removed by means of Ficoll/Hypaque, whilst the red blood cells were eliminated by treatment with hypotonic solutions. The cell vitality of the PMNs was calculated by exclusion with Tripan blue, whilst the percentage of PMNs on the cytocentrifugate was estimated after staining with Diff Quinck., in accordance with the procedure described by W. J. Ming et al., J. Immunol., 138, 1469, 1987. In each of the experiments, which will be described in details below, the pre-incubations were carried out at a temperature of 37° C., observing incubation times of 10 minutes with the compounds under examination.
In the chemotaxis experiments and in those aimed at measuring the cytosol levels of the Ca^++ ion, recombinant human interleukin-8 (rhIL-8, Pepro Tech) was used; the lyophilized protein was dissolved in HBSS (Hank's balanced salts solution) at the concentration of 100 mcg/mL, and then diluted down to a concentration of 10 ng/mL in the chemotaxis experiments, to that a concentration of 25-50 ng/mL in the evaluation of the intracellular modifications of Ca^2+ (i.e. [Ca^2+]i) and to that a concentration of 400 ng/ml in the evaluation of tyrosine kinase activation.
During the chemotaxis assay (according to W. Falket et al., J. Immunol. Methods, 33, 239, 1980) PVP-free filters were used having a porosity of 5 mcm and microchambers made of plexiglas suitable for carrying out the replication.
The compounds being studied were added at one and the same concentration in the top-level wells that contained the suspension of PMNs, and in the wells of the bottom level that contained the vehicle to which IL-8 (or, if so desired, another stimulating agent) was added or otherwise.

PGE2 = PGE2 synthesis in murine macrophages stimulated with lipopolysaccharides; type: cell-based; settings: after stimulation with LPSs at 1 μg/mL
TNF-α [2] = assay: TNF-α production in murine macrophages stimulated by LPS or H2O2; type: cell-based; settings: stimulated in murine macrophages by H2O2 and by liposaccharides
TNF-α [3] = settings: in the presence of LPSs and of S-ketoprofen 10^−5 M; LPSs alone 10±5 ng/mL; cited from earlier work
[4] = Table 2, compounds 10^−8 M, IL-8 10 ng/mL
[5] = Table 1, compound conc. 10^−8 M, IL-8 10 ng/mL

Row | Compound | % inhibition of chemotaxis of human PMNs stimulated by IL-8 (10 ng/mL) [1, 4] | activity on chemotaxis induced by IL-8, in words [1] | also measured
1 | CNC(=O)[C@H](C)c1ccc(CC(C)C)cc1 [Compound 2, R(−)-2-(4′-isobutyl)phenyl-N-methyl propionamide] | 25 ± 9% | – | % inhibition of leucocyte chemotaxis stimulated by IL-8 (10 ng/mL) ([1]; concentration of 10^−8 M): 25±9%; synthesis of PGE2 in the macrophages (PGE2): do not inhibit; production of TNF-α (TNF-α [2]): down-regulate the production of TNF-α
2 | CC(C)Cc1ccc([C@@H](C)C(=O)N[C@H](C)C(=O)O)cc1 [Compound 6, (R,R′)-2-[(4′-isobutyl)phenyl]-N-(2″-carboxyethyl)propionamide] | −17 ± 6% | inhibitory effect on chemotaxis | % inhibition of leucocyte chemotaxis [1]: −17 ± 6%
3 | CC(C)Cc1ccc([C@@H](C)C(=O)NCC(=O)O)cc1 [Compound 4, R(−)-2-[(4′-isobutyl)phenyl]-N-carboxymethyl propionamide] | 45 ± 8% | inhibitory effect on chemotaxis | –
4 | CC(C)Cc1ccc([C@H](C)C(N)=O)cc1 [(S)-2-(4-isobutyl-phenyl)-propionamide, reference compound] | – | altogether absent | % inhibition of chemotaxis of human PMNs stimulated by IL-8 (10 ng/mL) [1, 5]: −2 ± 8%
5 | CC(C)Cc1ccc([C@@H](C)C(=O)Nc2ccccc2)cc1 [Compound 9, R(−)-2-(4′-isobutyl)phenyl-N-phenyl propionamide] | 9 ± 10% | poor activity | –
6 | CC(C)Cc1ccc([C@@H](C)C(=O)Nc2cccnc2)cc1 [Compound 11, R(−)-2-[(4′-isobutyl)phenyl]-N-(3″-pyridyl)propionamide] | 11 ± 10% | poor activity | –
7 | CC(C)Cc1ccc([C@@H](C)C(=O)N[C@@H](C)C(=O)O)cc1 [Compound 5] | 65 ± 9% | marked “pro-kinetic” paradox effect | inhibition of chemotaxis induced by IL-8, dose dependence ([1]; IL-8 10 ng/mL, concentration range from 10^−8 to 10^−10 M): inhibits, in a dose-dependent way; % inhibition of leucocyte chemotaxis [1]: 65 ± 9%
8 | Cc1ccnc(NC(=O)[C@H](C)c2cccc(C(=O)c3ccccc3)c2)c1 [R(−)-2-[(5′-benzoyl)phenyl]-N-(4″methyl-2″-pyridyl)propionamide, reference compound] | – | – | % inhibition of chemotaxis of human PMNs stimulated by IL-8 (10 ng/mL) ([1]; Table 4, IL-8 10 ng/mL): −15 ± 25%
9 | CC(C)Cc1ccc([C@H](C)C(=O)N[C@H](C)C(=O)O)cc1 [S,D, reference compound] | – | – | % inhibition of leucocyte chemotaxis [1]: 4 ± 19%
10 | Cc1ccnc(NC(=O)[C@@H](C)c2ccc(CC(C)C)cc2)c1 [S(+)-2-[(4′-isobutyl)phenyl]-N-(4″-methyl-2″-pyridyl)propionamide, reference compound] | – | – | % inhibition of chemotaxis of human PMNs stimulated by IL-8 (10 ng/mL) ([1]; Table 4, IL-8 10 ng/mL): −3 ± 5%
11 | CC(C)Cc1ccc([C@H](C)C(=O)N[C@@H](C)C(=O)O)cc1 [S,L, reference compound] | – | – | % inhibition of leucocyte chemotaxis [1]: 4 ± 13%
12 | CC(C)Cc1ccc([C@@H](C)C(=O)NCCO)cc1 [Compound 3, R(−)-2-(4′-isobutyl)phenyl-N-(2′-hydroxyethyl)propionamide] | 20 ± 11% | decrease in the biological activity | –
13 | CC(C)Cc1ccc([C@@H](C)C(N)=O)cc1 [Compound 1, (R)-2-(4-isobutyl-phenyl)-propionamide, reference compound] | 57 ± 12% | active | % inhibition of chemotaxis of human PMNs stimulated by IL-8 (10 ng/mL) [1, 5]: 57 ± 12%
14 | CC(C)Cc1ccc([C@@H](C)C(=O)Nc2ccncc2)cc1 [Compound 12] | 61 ± 8% | good activity | –
15 | CC(C)Cc1ccc([C@@H](C)C(=O)NCCOCCO)cc1 [Compound 8, R(−)-2-[(4′-isobutyl)phenyl]-N-(2″-hydroxyethoxyethyl)propionamide] | 40 ± 4% | restored | –
16 | Cc1ccnc(NC(=O)[C@H](C)c2ccc(CC(C)C)cc2)c1 [R(−)-2-[(4′-isobutyl)phenyl]-N-(4″-methyl-2″-pyridyl)propionamide, reference compound] | – | – | % inhibition of chemotaxis of human PMNs stimulated by IL-8 (10 ng/mL) ([1]; Table 4, IL-8 10 ng/mL): −12 ± 2%
17 | CC(C)Cc1ccc([C@@H](C)C(=O)Nc2ccccn2)cc1 [Compound 10, R(−)-2-(4′-isobutyl)phenyl-N-(2′-pyridyl)propionamide] | 36 ± 6% | good activity | –
18 | C[C@H](C(=O)O)c1cccc(C(=O)c2ccccc2)c1 [S-ketoprofen] | – | – | TNF-α in the incubation medium (TNF-α [3]): 39 ± 5 ng/mL
19 | CC(C)Cc1ccc([C@@H](C)C(=O)N[C@@H](CO)C(=O)O)cc1 [Compound 7] | 12 ± 4% | decrease in the biological activity | –
20 | Cc1ccnc(NC(=O)[C@@H](C)c2cccc(C(=O)c3ccccc3)c2)c1 [S(+)-2-[(5′-benzoyl)phenyl]-N-(4″-methyl-2″-pyridyl)propionamide, reference compound] | – | – | % inhibition of chemotaxis of human PMNs stimulated by IL-8 (10 ng/mL) ([1]; Table 4, IL-8 10 ng/mL): −1 ± 10%
